Source: patent US20260184807A1, “Methods for Treating Rheumatoid Arthritis Using a Syndecan-1 Inhibitor or Syntenin-1 Inhibitor” (The United States Government as represented by the …, priority 2022, published 2026)

What was measured:
RA ST explants = assay: Rheumatoid arthritis explants stimulated with Syntenin-1 (qRT-PCR, ELISA); type: cell-based, human; conditions: Syntenin-1 5000 ng/ml 6-8 h, mTOR1i 1 μM
Experimental: FIGS. 19A-R show Syntenin1-induced metabolic activity fine-tunes transcription of angiogenic and inflammatory factors in RA ST explants. […] RA STs were stimulated with 1000 ng/ml Syntenin-1 for 6-8 h. Synovial tissues were harvested for transcriptome analysis by qRT-PCR and supernatants were used for protein quantification by ELISA. The transcription level of JAG1 (FIG. 19F), Notch1 (FIG. 19G), VEGF (FIG. 19H), VEGFR1 (FIG. 19I), and RAPTOR (FIG. 19J) was quantified by real-time RT-PCR, n=6-8. RA explants were untreated or stimulated with 5000 ng/ml Syntenin-1 in the presence or absence of SDC1-Ab (1:100), HIF1αi (2 μM), or mTOR1i (IμM) for 6-8 h. The transcription levels of RAPTOR (FIG. 19K, n=3), VEGF (FIG. 19L, n=5), IL-1β (FIG. 19M, n=8), CCL5 (FIG. 19N, n=6), IL-6 (FIG. 19O, n=6), IL-8 (FIG. 19P, n=6), CCL2 (FIG. 19Q, n=8) were evaluated by qRT-PCR or ELISA. […] Data are presented as mean±SEM: significant differences were determined by the Mann-Whitney test, 2way ANOVA, or one-way ANOVA. *p<0.05, **p<0.01, ***p<0.001, ****p<0.0001.
RheumatoidArthritis Explants. RA ST (30 mg) was cut into small pieces to allow proper access to stimuli and were starved o/n in 0% FBS RPMI with or without SDC1-Ab (1:100), mTOR1i (1 μM), and HIF1αi ([…]). […] Tissues were harvested for transcriptome analysis and supernatants were used for protein quantification by ELISA.

[1] = tested on: RA monocyte-differentiated MΦs; assay: CD14+CD86+GLUT1+ MΦ frequency by flow cytometry after Syntenin-1; type: cell-based, human; conditions: Syntenin-1 1000 ng/mL, 24 h; IL5Ra 2 μg/mL, PDZ1i 10 μM, mTORi 1 μM; FIGS. 3H, 3I
Experimental: (B, C) RA MΦs were treated with PBS (ctrl) or Syntenin-1 (1000 ng/mL) for 6 hours and transcription levels of HIF1α (n=10) (FIG. 3B). GLUT1, RAPTOR, HK2, PFK2, PDK1, PKM2 (FIG. 3C) were quantified by qRT-PCR (n=6). […] FIGS. 3H, 3I) after 24 hours impact of treatment was determined on CD14+CD86+ GLUT1+ frequency by flow cytometry (n=4-5). […] Data are presented as mean±SEM; significant differences were determined by Mann-Whitney test, Student's t-test, two-way-ANOVA, or one-way ANOVA. *p<0.05, **p<0.01, ***p<0.001, ****p<0.0001. ANOVA, analysis of variance.
Flow cytometry. Depending on the assay negatively selected human monocytes or human peripheral blood mononuclear cells from Rheumatoid Arthritis patients were stained with anti-CD14, anti-CD86, anti-CD206, anti-CD4 (BioLegend Inc.), or GLUT1 (Novus Biologicals) fluorescently labeled antibodies. Prior to intracellular staining, cells were stimulated with PMA (100 ng/ml) and ionomycin (1.5 μM; both Sigma-Aldrich) in the presence of Brefeldin A (eBioscience, San Diego, USA) for 3-4 h. To exclude dead cells, cells were stained by the ZombieViolet Fixable Viability Kit (BioLegend Inc.). […]
Syntenin-1 stimulation and inhibition. […] Cells were subsequently harvested in TRIzol reagent (Life Technologies) or RIPA buffer (Cell Signaling Technology) for mRNA quantification and western blot analysis; conditioned media was collected for ELISA.

CO[C@H]1C[C@@H]2CC[C@@H](C)[C@@](O)(O2)C(=O)C(=O)N2CCCC[C@H]2C(=O)O[C@H]([C@H](C)C[C@@H]2CC[C@@H](OCCO)[C@H](OC)C2)CC(=O)[C@H](C)/C=C(\C)[C@@H](O)[C@@H](OC)C(=O)[C@H](C)C[C@H](C)/C=C/C=C/C=C/1C [mTORi, Everolimus] was tested, and the “CCL2 transcription and TNF secretion” value (RA ST explants; FIGS. 19Q-R) was “intercepted”, the “Syntenin-1-enriched RAPTOR expression” value (RA ST explants; HIF1αi 2 μM, FIG. 19K) was “suppressed” and the “Syntenin-1 reconfiguration of naïve cells into RA CD14+CD86+GLUT1+MΦs” value [1] was “exclusively impaired”.
